Results from US20100105651A1, “ANTAGONISTS OF SNS SODIUM CHANNELS” (priority 2005, published 2010).

molecular target: T1, human NaV1.8 (hNaV1.8) ion channel (Homo sapiens, UniProt Q9Y5Y9); assay: Inhibition of Human NaV1.8 stably expressed in SH-SY-5Y cells (membrane potential dye fluorescence assay); assay type: cell-based; settings: SH-SY-5Y cells stably expressing hNaV1.8; FLIPR membrane potential dye; 10 μM pyrethroid, 250 nM TTX; test range 100 μM-0.05 μM; read-out: hNav1.8 IC50
T1 construct: expressed in transfected cells
T1 sequence (Q9Y5Y9 whole entry): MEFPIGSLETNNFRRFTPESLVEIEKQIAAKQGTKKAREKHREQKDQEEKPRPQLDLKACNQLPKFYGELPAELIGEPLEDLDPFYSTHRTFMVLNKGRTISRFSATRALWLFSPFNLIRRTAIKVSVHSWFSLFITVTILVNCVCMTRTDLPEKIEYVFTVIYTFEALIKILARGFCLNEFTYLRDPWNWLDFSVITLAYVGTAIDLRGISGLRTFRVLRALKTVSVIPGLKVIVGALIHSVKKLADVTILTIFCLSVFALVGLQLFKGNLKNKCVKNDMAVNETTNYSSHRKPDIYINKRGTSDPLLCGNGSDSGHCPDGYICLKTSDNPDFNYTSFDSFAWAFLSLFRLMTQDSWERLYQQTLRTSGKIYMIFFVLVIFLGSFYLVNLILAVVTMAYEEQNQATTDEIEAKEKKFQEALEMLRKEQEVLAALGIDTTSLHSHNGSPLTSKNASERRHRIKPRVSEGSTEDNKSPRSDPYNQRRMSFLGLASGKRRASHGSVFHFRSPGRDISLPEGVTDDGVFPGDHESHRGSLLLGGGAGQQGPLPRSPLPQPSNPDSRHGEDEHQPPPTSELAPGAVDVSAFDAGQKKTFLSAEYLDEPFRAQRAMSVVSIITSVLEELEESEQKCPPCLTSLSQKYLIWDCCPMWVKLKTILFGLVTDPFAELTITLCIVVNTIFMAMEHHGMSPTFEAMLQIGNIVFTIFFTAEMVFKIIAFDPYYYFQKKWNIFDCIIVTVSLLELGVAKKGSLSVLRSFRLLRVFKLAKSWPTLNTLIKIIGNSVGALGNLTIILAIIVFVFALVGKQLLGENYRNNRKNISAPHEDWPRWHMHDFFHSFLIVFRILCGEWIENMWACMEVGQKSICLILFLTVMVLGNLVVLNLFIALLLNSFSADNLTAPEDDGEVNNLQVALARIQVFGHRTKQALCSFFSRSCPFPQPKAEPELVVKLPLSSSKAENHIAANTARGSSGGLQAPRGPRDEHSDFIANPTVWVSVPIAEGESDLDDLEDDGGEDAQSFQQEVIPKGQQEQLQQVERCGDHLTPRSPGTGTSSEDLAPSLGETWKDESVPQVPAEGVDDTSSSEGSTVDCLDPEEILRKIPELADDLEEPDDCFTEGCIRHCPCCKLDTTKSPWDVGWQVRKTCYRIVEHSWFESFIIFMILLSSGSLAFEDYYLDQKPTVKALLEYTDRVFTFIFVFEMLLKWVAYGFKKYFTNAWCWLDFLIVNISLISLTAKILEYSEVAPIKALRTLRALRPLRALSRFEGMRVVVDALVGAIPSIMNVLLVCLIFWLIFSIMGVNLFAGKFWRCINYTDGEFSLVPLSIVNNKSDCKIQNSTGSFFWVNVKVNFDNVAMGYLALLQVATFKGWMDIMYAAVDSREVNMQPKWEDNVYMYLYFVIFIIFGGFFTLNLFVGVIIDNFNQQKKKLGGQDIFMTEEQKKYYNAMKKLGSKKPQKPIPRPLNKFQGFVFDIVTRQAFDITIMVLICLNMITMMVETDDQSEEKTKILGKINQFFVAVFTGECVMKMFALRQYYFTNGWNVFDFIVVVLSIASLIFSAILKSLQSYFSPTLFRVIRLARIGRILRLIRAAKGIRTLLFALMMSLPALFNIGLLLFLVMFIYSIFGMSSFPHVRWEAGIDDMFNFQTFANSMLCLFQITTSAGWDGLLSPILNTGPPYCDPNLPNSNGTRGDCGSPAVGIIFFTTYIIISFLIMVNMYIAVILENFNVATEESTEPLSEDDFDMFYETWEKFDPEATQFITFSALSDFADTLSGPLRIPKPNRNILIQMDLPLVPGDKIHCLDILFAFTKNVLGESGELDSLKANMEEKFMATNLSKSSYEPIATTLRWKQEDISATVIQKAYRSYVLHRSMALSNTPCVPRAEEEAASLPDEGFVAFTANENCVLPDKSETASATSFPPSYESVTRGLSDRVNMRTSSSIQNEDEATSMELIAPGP
Description: Inhibition of Human NaV1.8 stably expressed in SH-SY-5Y cells
A SH-SY-5Y neuroblastoma cell line stably expressing the human NaV1.8 (hNaV1.8) ion channel was constructed. This cell line has been used to develop a medium to high throughput assay for determining the ability of test compounds to inhibit membrane depolarisation mediated via the hNaV1.8 channel.
SH-SY-5Y hNaV1.8 are grown in adherent monolayer culture using 50:50 Ham's F-12/EMEM tissue culture medium supplemented with 15% (v/v) foetal bovine serum; 2 mM L-glutamine, 1% NEAA and 600 μg·ml^−1 Geneticin sulphate. Cells are removed from the tissue culture flask using trypsin/EDTA and re-plated into black walled, clear bottom 96-well assay plates at 50,000 cells·well^−1 24 hours prior to assay.
On the day of assay the cell assay plates are washed to remove cell culture medium using a sodium free assay buffer (145 mM tetramethyl ammonium chloride; 2 mM calcium chloride; 0.8 mM magnesium chloride hexahydrate; 10 mM HEPES; 10 mM glucose; 5 mM potassium chloride, pH 7.4). Fluorescent membrane potential dye solution (FLIPR™ membrane potential dye, Molecular Devices Corporation), containing 10 μM of a pyrethroid to prevent channel inactivation and 250 nM tetrodotoxin (TTX) to reduce interference from TTX-sensitive sodium channels present in the cell line. Test compound, initially dissolved in dimethyl sulfoxide but further diluted in sodium free buffer, is added to achieve the final test concentration range of 100 μM-0.05 μM.
Cell plates are incubated for 30 minutes at room temperature to allow equilibration of dye and test compound. Plates are then transferred to a fluorescence plate reader for fluorescence measurement using an excitation wavelength of 530 nm whilst measuring fluorescence emission at 565 nm. […] Membrane depolarisation is registered by an increase in fluorescence emission at 565 nm.
The change in fluorescence seen in each test well upon the addition of sodium containing buffer is calculated relative to the baseline fluorescence for that well. This figure is then used for calculating the IC50 for each test compound.

SMILES | IC50 [nM]
CC(NC1CN(C(=O)NC(c2ccc(F)cc2)c2ccc(F)cc2)C1)c1ccc(F)cc1 (stereo not drawn) [Example 2, 3-[1-(4-Fluoro-phenyl)-ethylamino]-azetidine-1-carboxylic acid [bis-(4-fluoro-phenyl)-methyl]-amide] | 2620
CC(NC(=O)N1CC(NC2Cc3ccccc3C2)C1)c1ccc(C(F)(F)F)cc1 (stereo not drawn) [Example 3, 3-(Indan-2-ylamino)-azetidine-1-carboxylic acid [1-(4-trifluoromethyl-phenyl)-ethyl]-amide] | 2980
CC(NC(=O)N1CC(NC2CCc3ccccc3C2)C1)c1ccc(C(F)(F)F)cc1 (stereo not drawn) [Example 4, 3-(1,2,3,4-Tetrahydro-naphthalen-2-ylamino)-azetidine-1-carboxylic acid [1-(4-trifluoromethyl-phenyl)-ethyl]-amide] | 3320
CC(NC(=O)N1CC(NC2CCc3cc(F)ccc3C2)C1)c1ccc(C(F)(F)F)cc1 (stereo not drawn) [Example 5, 3-(6-Fluoro-1,2,3,4-tetrahydro-naphthalen-2-ylamino)-azetidine-1-carboxylic acid [1-(4-trifluoromethyl-phenyl)-ethyl]-amide] | 1740
CCCCOc1ccc(NC(=O)N2CC(NC3CCc4cc(F)ccc43)C2)cc1 (stereo not drawn) [Example 6, 3-(5-Fluoro-indan-1-ylamino)-azetidine-1-carboxylic acid (4-butoxy-phenyl)-amide] | 1200
O=C(Nc1ccc(Oc2ccc(F)cc2)cc1)N1CC(NC2CCc3cc(F)ccc32)C1 (stereo not drawn) [Example 7, 3-(5-Fluoro-indan-1-ylamino)-azetidine-1-carboxylic acid [4-(4-fluoro-phenoxy)-phenyl]-amide] | 250
O=C(Nc1ccc(Oc2ccc(F)cc2)cc1)N1CC(NC2CCc3cc(F)ccc3C2)C1 (stereo not drawn) [Example 8, 3-(6-Fluoro-1,2,3,4-tetrahydro-naphthalen-2-ylamino)-azetidine-1-carboxylic acid [4-(4-fluoro-phenoxy)-phenyl]-amide] | 310
O=C(Nc1ccc(Oc2ccc(F)cc2)c(F)c1)N1CC(NC2CCc3cc(F)ccc32)C1 (stereo not drawn) [Example 11, 3-(5-Fluoro-indan-1-ylamino)-azetidine-1-carboxylic acid [3-fluoro-4-(4-fluoro-phenoxy)-phenyl]-amide] | 460
O=C(Nc1ccc(Oc2ccc(F)cc2)cc1)N1CC(NC2CCc3cc(O)ccc32)C1 (stereo not drawn) [Example 12, 3-(5-Hydroxy-indan-1-ylamino)-azetidine-1-carboxylic acid [4-(4-fluoro-phenoxy)-phenyl]-amide] | 1350
O=C(Nc1ccc(Oc2cccc(F)c2)cc1)N1CC(NC2CCc3cc(F)ccc32)C1 (stereo not drawn) [Example 13, 3-(5-Fluoro-indan-1-ylamino)-azetidine-1-carboxylic acid [4-(3-fluoro-phenoxy)-phenyl]-amide] | 310
O=C(Nc1ccc(Oc2ccccc2F)cc1)N1CC(NC2CCc3cc(F)ccc32)C1 (stereo not drawn) [Example 14, 3-(5-Fluoro-indan-1-ylamino)-azetidine-1-carboxylic acid [4-(2-fluoro-phenoxy)-phenyl]-amide] | 540
O=C(Nc1ccc(Oc2ccc(F)cc2)c(F)c1)N1CC(NC2CCc3cc(Cl)ccc32)C1 (stereo not drawn) [Example 15, 3-(5-Chloro-indan-1-ylamino)-azetidine-1-carboxylic acid [3-fluoro-4-(4-fluoro-phenoxy)-phenyl]-amide] | 650
O=C(Nc1ccc(Oc2ccc(F)cc2)c(F)c1)N1CC(NC2CCc3cc(Br)ccc32)C1 (stereo not drawn) [Example 16, 3-(5-Bromo-indan-1-ylamino)-azetidine-1-carboxylic acid [3-fluoro-4-(4-fluoro-phenoxy)-phenyl]-amide] | 1720
O=C(Nc1ccc(Oc2ccc(F)cc2)cc1)N1CC(NC2CCc3cc(Br)ccc32)C1 (stereo not drawn) [Example 17, 3-(5-Bromo-indan-1-ylamino)-azetidine-1-carboxylic acid [4-(4-fluoro-phenoxy)-phenyl]-amide] | 540
O=C(Nc1ccc(Oc2ccc(F)cc2)cc1)N1CC(NC2CCc3cc(Cl)ccc32)C1 (stereo not drawn) [Example 18, 3-(5-Chloro-indan-1-ylamino)-azetidine-1-carboxylic acid [4-(4-fluoro-phenoxy)-phenyl]-amide] | 620
O=C(Nc1ccc(Oc2ccc(F)cc2)cc1)N1CC(NC2CCCc3ccccc32)C1 (stereo not drawn) [Example 19, 3-(1,2,3,4-Tetrahydro-naphthalen-1-ylamino)-azetidine-1-carboxylic acid [4-(4-fluoro-phenoxy)-phenyl]-amide] | 190
CN(C(=O)N1CC(NC2CCc3cc(F)ccc32)C1)c1ccc(Oc2ccc(F)cc2)cc1 (stereo not drawn) [Example 20, 3-(5-Fluoro-indan-1-ylamino)-azetidine-1-carboxylic acid [4-(4-fluoro-phenoxy)-phenyl]-methyl-amide] | 700
COc1ccc2c(c1)CCC2NC1CN(C(=O)Nc2ccc(Oc3ccc(F)cc3)cc2)C1 (stereo not drawn) [Example 21, 3-(5-Methoxy-indan-1-ylamino)-azetidine-1-carboxylic acid [4-(4-fluoro-phenoxy)-phenyl]-amide] | 310
O=C(Nc1ccc(C(F)(F)F)cc1)N1CC(NC2CCc3cc(F)ccc32)C1 (stereo not drawn) [Example 22, 3-(5-Fluoro-indan-1-ylamino)-azetidine-1-carboxylic acid (4-trifluoromethyl-phenyl)-amide] | 3110
O=C(Nc1cccc(C(F)(F)F)c1)N1CC(NC2CCc3cc(F)ccc32)C1 (stereo not drawn) [Example 24, 3-(5-Fluoro-indan-1-ylamino)-azetidine-1-carboxylic acid (3-trifluoromethyl-phenyl)-amide] | 2680
CC1Cc2ccccc2C1NC1CN(C(=O)Nc2ccc(Oc3ccccc3)cc2)C1 (stereo not drawn) [Example 25, 3-(2-Methyl-indan-1-ylamino)-azetidine-1-carboxylic acid (4-phenoxy-phenyl)-amide] | 840
CC1CC(NC2CN(C(=O)Nc3ccc(Oc4ccccc4)cc3)C2)c2ccccc21 (stereo not drawn) [Example 26, 3-(3-Methyl-indan-1-ylamino)-azetidine-1-carboxylic acid (4-phenoxy-phenyl)-amide] | 240
O=C(Nc1ccc(Oc2ccccc2)cc1)N1CC(NC2CCc3cc(F)ccc32)C1 (stereo not drawn) [Example 27, 3-(5-Fluoro-indan-1-ylamino)-azetidine-1-carboxylic acid (4-phenoxy-phenyl)-amide] | 270
O=C(Nc1cccc(Oc2ccccc2)c1)N1CC(NC2CCc3cc(F)ccc32)C1 (stereo not drawn) [Example 28, 3-(5-Fluoro-indan-1-ylamino)-azetidine-1-carboxylic acid (3-phenoxy-phenyl)-amide] | 430
CN(C1CN(C(=O)Nc2cccc(Oc3ccccc3)c2)C1)C1CCc2cc(F)ccc21 (stereo not drawn) [Example 29, 3-[(5-Fluoro-indan-1-yl)-methyl-amino]-azetidine-1-carboxylic acid (3-phenoxy-phenyl)-amide] | 420
O=C(Nc1ccc(Oc2ccccc2)cc1)N1CC(NC2CCc3ccccc32)C1 (stereo not drawn) [Example 30, 3-(Indan-1-ylamino)-azetidine-1-carboxylic acid (4-phenoxy-phenyl)-amide] | 260

same assay, conditions: hNav1.8 IC50, SH-SY-5Y cells stably expressing hNaV1.8; FLIPR membrane potential dye; 10 μM pyrethroid, 250 nM TTX; test range 100 μM-0.05 μM

SMILES | IC50 [nM]
Cc1ccccc1CC(C)NC1CN(C(=O)NC(C)c2ccc(C(F)(F)F)cc2)C1 (stereo not drawn) [Example 1, 3-(1-Methyl-2-o-tolyl-ethylamino)-azetidine-1-carboxylic acid [1-(4-trifluoromethyl-phenyl)-ethyl]-amide] | 1300
